Source: patent US20080279961A1, “TELOMERE TARGETING AGENTS AS STEM CELLS DIRECTED TREATMENTS” (priority 2007, published 2008)
“Also recorded” adds a separate entry of the source.

What was measured:
MCF-7 = assay: cytokine secretion into clonogenic assay supernatant (ELISA); format: cell-based, human; conditions: MCF-7 tumor stem cell assay supernatant
Experimental: (§1) For the monkey bone marrow and the human cord blood, methylcellulose from StemCell Technologies (Vancouver) was used to grow the stem cells as colonies. […] Cancer tissues are composed of various cell types, tumor cells, stromal fibroblasts, blood vessels, inflammatory cells, and adipocytes, all of which can carry over into single cell suspensions that are seeded into soft agar after tissue digestion. To examine whether tumor stem cells secrete cytokines that support their growth of enforce differentiation, the expression of 6 cytokines found in the supernatant of clonogenic assays was evaluated. Ultrasensitive immunoassay procedures based on the ELISA (enzyme linked immuno absorbent assay) technology were employed for the measurement of VEGF, TNF-alpha, GMCSF, GCSF IL4 and IL6. The assays were performed by the Cytokine Laboratory in the VA Hospital at the University of Maryland Baltimore and data provided as optical density readouts that were converted relative to a standard into pg/ml absolute cytokine values. The IL4 and 6 measurements were all negative; however VEGF, TNF-alpha, GMCSF and GCSF yielded interesting and differential results between tumor and normal stem cells. While cytokine levels decreased after RHPS4 treatment in tumor stem cell assays, they increased in normal stem cell cultures.

HEK293T = assay: as above; format: cell-based, human; conditions: HEK293T normal stem cell culture supernatant
Experimental: as §1

gamma-H2AX = gamma-H2AX immunoblotting and immunofluorescence; format: cell-based, human; conditions: UXF1138L cells, 1 μM, Western blot
Experimental: During phosphorylated H2AX (gamma-H2AX) and hTERT immunofluorescence staining, approximately 75,000 UXF1138L cells/chamber were seeded onto 8 chamber glass slides (Costar) 24 hrs prior to RHPS4 treatment. After exposure to 1 μM RHPS4 for 1, 6, or 24 hours, cells were washed twice with PBS and air dried. Cells were fixed and permeabilized by immersion into ice-cold methanol/acetone (1:1; 3×1 min). Slides were blocked overnight at 4° C. with 5% BSA in PBS and washed with PBS (3×) before incubation (2 hrs) with anti-gamma-H2AX mouse monoclonal antibody (Upstate, Waltham, Mass.; 1:250 in PBS) or hTERT monoclonal antibody (NCL-L-hTERT Novacastra, Newcastle, UK; 1:40) respectively. Control cells were probed with mouse IgG (Santa Cruz Biotechnolog Inc., Santa Cruz, Calif.). Slides were washed 3× with PBS, before incubation with a goat anti-mouse FITC conjugated secondary antibody (Sigma; 1:100, 3 h). Following further PBS washes (3×), slides were incubated with 1:5000 DAPI (2 mg/ml; Sigma), washed 3× in PBS and mounted with Vectashield mounting media. Images were visualized as described above.
During immunoblotting for gamma-H2AX, cells were grown to 50 to 80% confluent in 6-well plates (Falcon) and treated with 1 μM RHPS4 for 1, 6, and 24 hours. […] Histones were dissolved in water and protein concentration was determined using the BioRad protein assay (BioRad Laboratories, Hercules Calif.). […]

MCF-7 cells = assay: human tumor stem cell assay (HTCA)/clonogenic assay; format: cell-based
Experimental: (§2) In human tumor stem cell assay (HTCA)/clonogenic assay, single cell suspensions from in vivo studies above were washed in medium and passed through sieves and the resulting single cell suspensions seeded into soft agar (n=3 tumors per group) as described by us before (Fiebig et al., 2004). Single cell suspensions of cell lines were prepared by trypsinization from cells growing as monolayers on plastic. Briefly, 5,000 (HEK293T cells), 10,000 (PC3, MCF-7 and UXF1138L cells) or 50,000 (UXF1138L tumor tissue) vital cells were added to 0.2 ml Iscove's medium/20% fetal bovine serum/0.05% gentamycin containing 0.4% agar and plated on top of a base layer consisting of 0.2 ml medium with 0.75% agar. The next day, the agar layers were fed with Isocve's medium and cultures incubated at 37° C., 7% CO2 for approximately 11 days. Vital colonies were stained with 2-(4-iodophenyl)-3-(4-nitrophenyl)-5-phenyltetrazolium chloride (1 mg/ml) 24 hrs before evaluation, and colonies >70 μm were counted with an automated image analysis system (Omincon FAS IV, BIOSYS GmbH, Karben, Germany). Drug effect was assessed as growth inhibitory concentrations 50 and 70% (IC50, IC70). Methylcellulose was used to grow cord blood stem cells instead of soft agar. The seeding density was 20,000 cells/well. Stem cell growth factor supplemented and optimized methylcellulose (Methocult H4434) was purchased from Stem Cell Technologies (Vancouver, CA). Methylcellulose lacking growth factors was used as negative growth control. Statistical significance between treatment groups was evaluated by using the Student T-test.
(§3) The growth inhibitory activity of RHPS4 in human bulk tumor cells have been compared, by MTT assay, against RHPS4 activity in tumor cells grown as colonies in the clonogenic assay, also termed the human tumor stem cell assay (HTCA) (FIG. 2A-B). HEK293T human embryonic kidney cells grown in the HTCA, and cord blood cells cultured in methylcellulose were also treated with RHPS4 (FIG. 2C). The MTT assay is a 5 day proliferation test measuring effects on a morphologically heterogeneous, differentiated cell population (bulk cells), whereas the HTCA and methylcellulose assays are longer term (10-15 day) tests in which only a very small fraction of a bulk culture (˜0.1-1%) will grow as colonies. Cells growing anchorage-independently as colonies in a semi-solid matrix are considered to be pluripotent stem cells (Hamburger & Salmon, 1977; Locke et al., 2005; Fiebig et al. 2004). […] Similar observations were made with the breast cancer cell line MCF-7 (shown in FIG. 2B, HTCA IC50=0.04 microM; bulk cell IC50=2 microM).

PC3 cells = assay: as above; format: cell-based; conditions: PC3 colonies; read-out: IC50 colony growth in the HTCA
Experimental: as §2, §3

UXF1138L cells = assay: as above; format: cell-based; conditions: UXF1138L colonies; read-out: IC50 colony growth in the HTCA
Experimental: as §2, §3

[1] = system: normal monkey bone marrow stem cells; assay: methylcellulose colony growth of bone marrow stem cells; format: cell-based; conditions: low drug concentrations
Experimental: as §1

Structure (SMILES): COS(=O)(=O)[O-].Cc1cc2c3c([n+](C)c4ccc(F)cc4c3c1)-c1cc(F)ccc1N2C [RHPS4, 3,11-difluoro-6,8,13-trimethyl-8H-quino[4,3,2-kl]acridinium methosulfate]
- secretion of stem cell associated cytokines (MCF-7): decreased; also recorded: inhibition of tumor necrosis factor alpha, VEGF, GMCSF and GCSF
- secretion of stem cell associated cytokines (HEK293T): increased; also recorded: induction in cytokine secretion, particularly VEGF
- time at which gamma-H2AX expression was seen (gamma-H2AX): 1 h
- activity in colonies (HTCA) versus whole cell populations (MCF-7 cells; MCF-7): two log-fold
- IC50 (MCF-7 cells; MCF-7 colonies, read-out: IC50 colony growth in the HTCA): 40 nM
- IC50 (PC3 cells): 30 nM
- IC50 (UXF1138L cells): 20 nM
- growth of normal monkey bone marrow stem cells [1]: induces the growth
